Values quoted from earlier work as cited in US20060172368A1, “CGT1 as an antifungal target” (priority 2002, published 2006).

Conditions: mice, DOX 2 mg/ml in 5% sucrose as drinking water, approx. 5 ml per day

C[C@H]1c2cccc(O)c2C(=O)C2=C(O)[C@]3(O)C(=O)C(C(N)=O)=C(O)[C@@H](N(C)C)[C@@H]3[C@@H](O)[C@@H]21 [doxycycline]
concentration of DOX in serum: more than 2 mg/ml of serum
